Results reported in patent US20050019386A1 (priority 2001, published 2005).

What was measured:
[1] = test system: two human glioblastoma in a nude model; conditions: free form, 12.5 mg/kg/4 days; cited from earlier work
[2] = test system: ovarian carcinoma (human) on a nude mouse; experiment: Oral application, tumour mass of human ovarian carcinoma on nude mouse; format: in vivo; conditions: oral form of administration, Taxol 50 mg bolus

CC(=O)O[C@H]1C(=O)[C@@]2(C)[C@H]([C@H](OC(=O)c3ccccc3)[C@]3(O)C[C@H](OC(=O)[C@H](O)[C@@H](NC(=O)c4ccccc4)c4ccccc4)C(C)=C1C3(C)C)[C@]1(OC(C)=O)CO[C@@H]1C[C@@H]2O [unencapsulated taxol, paclitaxel]
growth of the tumour [1]: significant reduction of the growth of the tumour
effectivity determined on the basis of the tumour mass [2]: hardly being reduced
